Experimental data taken from patent US20110112056A1, “Use of Carbon-2-Modified-Vitamin D Analogs to Induce the Formation of New Bone” (WISCONSIN ALUMNI RESEARCH FOUNDATION, priority 2002, published 2011).
“Also recorded” adds a separate entry of the source. Where two headings read alike, the source gives them in different places.

Experiments:
[1] = tested on: human osteoblast cultures; assay: Bone nodule formation in vitro in human osteoblast cultures (Von Kossa stain); assay type: cell-based; settings: for formation of mineralized bone by osteoblast cultures (Von Kossa stain, FIG. 2): different concentrations (10^−8 to 10^−12 molar)
Source text: Human bone samples discarded after surgical procedures from patients undergoing hip/knee replacement surgeries are obtained under an approved IRB protocol (Protocol #2001-055) and processed as described below. These bone pieces are otherwise routinely discarded as waste material during surgery.
The bone pieces are thoroughly washed and cleaned under sterile conditions using phosphate-buffered saline (PBS). These pieces are then cut to obtain smaller pieces (1-2 mm^3) and subjected to enzymatic digestion process to isolate osteoblasts as described below.
Osteoblastic cells are obtained from the bone pieces by collagenase digestion. Briefly, the bone samples are washed twice in PBS and dissected in about 1 mm^3 size fragments which are then sequentially digested in trypsin (1 mg/mL) for ten minutes, followed by dispase (2 mg/mL) for twenty minutes, and bacterial collagenase [Collagenase A] (3 mg/mL) twice for thirty minutes in PBS at 37° C. in a water bath. Cells released by collagenase digestion are then washed, counted and grown to sub-confluence in 25 cm^2 cell culture flasks in 1:1 Ham's F12/Dulbecco's modification of Eagle's medium (DMEM) supplemented with 10% fetal bovine serum. Cells are cultured at 37° C. in a humidified atmosphere of 5% CO2/95% air. Medium changes are made every 2-3 days and cells are cultured until they are 80% confluent. Cells are then trypsinized, washed and frozen from early passages for evaluation using techniques as described below.
In order to evaluate the ability of osteoblasts to form bone nodules in vitro, cells are cultured in 6 well plates at 1-3×10^5 cells/well. Cells are cultured in the presence of either 1,25-(OH)2D3 or vitamin D analogs at various doses for 7 days. Complete medium changes are carried out twice during the 7-day period and the medium is supplemented with fresh compounds (either 1,25-(OH)2D3 or 2-methylene-19-nor-(20S)-1α,25-dihydroxyvitamin D3—2MD) during each medium change. At days 10 and 13, complete medium changes are carried out and the compounds are replaced by treatment with ascorbic acid (50 μg/ml) and β-glycerol phosphate (10 mM). A third dose of ascorbic acid and β-glycerol phosphate is added to the cultures on day 15 if needed. Following the culture period, cells are stained using the Von Kossa technique. Briefly, cells are stained with 5% silver nitrate for 30 minutes in the dark, rinsed with distilled water, reduced with sodium carbonate/formaldehyde solution for 2 minutes and washed under tap water for 10 minutes. The cells are then stained with methyl green pyronin for 20 minutes, washed with water followed by two washes of absolute alcohol. […] Bone nodule formation in vitro can be assessed quantitatively by various published procedures.

[2] = tested on: post-menopausal women; settings: cited from earlier work
[3] = tested on: ovariectomized rats; settings: cited from earlier work; for bone mass: ovariectomized animal; for bone strength: ovariectomized rats

Row | Structure (SMILES) | change in osteoblast cultures (photographs, FIG. 1) ([1]; 10^−8 molar, after 14 days of incubation) | formation of mineralized bone by osteoblast cultures (Von Kossa stain, FIG. 2) [1] | bone mass [2] | fracture rate [2] | degree of new bone formation ([1]; 10^−12 molar) | bone mass [3] | bone mass ([3]; listed as 2-methylene-19-nor-20S-1,25-(OH)2D3) | bone strength [3]
1 | C=C1/C(=C\C=C2/CCC[C@]3(C)[C@@H]([C@H](C)CCCC(C)(C)O)CC[C@@H]23)C[C@@H](O)C[C@@H]1O [1,25-(OH)2D3, 1α,25-dihydroxyvitamin D3] | very little change | does not produce this effect; also recorded: minimum effect | will not appreciably increase the bone mass | will decrease the fracture rate |  |  |  | 
2 | C=C1[C@H](O)CC(=C/C=C2\CCC[C@]3(C)[C@@H]([C@@H](C)CCCC(C)(C)O)CC[C@@H]23)C[C@H]1O [2MD, 2-methylene-19-nor-(20S)-1α,25-dihydroxyvitamin D3] |  | unique and strong action |  |  | saturating degree of new bone formation | markedly stimulate bone mass accumulation | increase bone mass | increase bone strength
3 | CC1C(O)CC(=CC=C2CCC[C@]3(C)[C@@H]([C@@H](C)CCCC(C)(C)O)CC[C@@H]23)CC1O (stereo partly drawn) [2α-methyl-19-nor-20S-1,25-(OH)2D3, 2α-methyl-19-nor-20(S)-1α,25-dihydroxyvitamin D3] |  |  |  |  |  | increase bone mass |  | increase bone strength
